{"source": "patent US20220378763A1", "about": "“COMPOUND FOR TREATMENT OF ACUTE INFLAMMATION IN THE MYOCARDIUM” (CALPROTECT AB, priority 2019, published 2022)", "key": {"[1]": {"test_system": "C57BL/6 mice with induced MI", "assay": "Flow cytometry of myeloid cells and reparatory macrophages on day 7 post-MI", "type": "in vivo, mouse", "conditions": "for Intra-myocardial counts of reparatory macrophages vs PBS-treated MI controls: hearts collected 7 days post-MI", "procedure": "Immune cells from blood, spleen, heart and bone-marrow were collected at 2 or 7 days post-MI, and analysed by flow-cytometry. Mice were anesthetized by intraperitoneal injection of a mixture of xylazine (10 mg/kg) and ketamine (100 mg/kg). After 10 minutes, blood was collected by cardiac punction. Thereafter, the spleen was removed and the heart was perfused with 5 ml ice-cold PBS. Perfused hearts were excised and collected into tubes with PBS and kept on ice. Femurs and tibias from each mouse were used to obtain whole bone marrow for analysis. Blood was stained with fluorochrome-labelled antibodies against mouse monocyte and neutrophil markers diluted in MACS buffer (PBS, 10% FCS and 0.5% BSA), followed by treatment with erythrocyte lysis buffer, washing and analysis. Spleens were mashed trough a cell strainer in ice-cold PBS. Hearts were cut into small pieces and placed into tubes containing 2.5 ml digestion cocktail (Collagenase I, 450 U/ml; Collagenase XI, 125 U/ml; DNAase I, 60 U/ml; Hyaluronidase type 1-5, 60 U/ml diluted in PBS containing Ca and Mg) incubated for 1 h at 37° C. with shaking at 220 rpm. Bone marrow was flushed from femur and tibia using ice-cold PBS. Cell suspensions from spleen, heart and bone marrow were filtered through a 40 um cell strainer (BD), treated with erythrocyte lysis buffer, washed and stained. For intracellular staining, cells were fixed, permeabilized and stained. Cell populations were analyzed by flow cytometry in a Gallios Flow Cytometer (Backman Coulter), and the results were analyzed using FlowJo (FlowJo®, LLC; Tree Star). The following anti-mouse antibodies were used for the flow cytometric analysis: anti-CD45 (30-F11), anti-CD11b (M1/70), anti-Ly6C (HK1.4), anti-CD115 (AFS98), anti-Ly6G (1A8), anti-F4/80 (BM8), anti-CCR2 (475301), anti-Ter119 (TER119), anti-Gr1 (RB6-8C5), anti-CD45R/B220 (RA3-6B2), anti-CD3ξ (145-2C11), anti-NK1.1 (PK136), anti-Ly6A/E (Sca-1) (E13-1617), anti-CD117 (c-kit) (2B8), anti-CD48 (HM48.1), anti-CD150/SLAM (TC15-12F12.2), anti-CD16/32 (93), anti-CD34 (MEC14.7) (all from BioLegend, San Diego, Calif., USA); anti-MerTK (DSSMMER) and anti-Nur77 (12.14) (eBioscience).\nMI induction and other procedures were carried out as outlined in Example 2. For long-term experiments of up to 21 days, a daily dose of 30 mg/Kg ABR-238901 was diluted in PBS and administered by daily i.p. injections for the first 3 days post-MI until the mice recovered and started to drink normally, and thereafter p.o. ad-libitum in meglumine buffer (FIG. 4A). Adequate treatment dosage was ensured by closely monitoring daily fluid intake.\nIn an attempt to explain these intriguing results, we assessed the effects of the extended treatment on the presence of myeloid cells in blood, spleen, bone marrow and myocardium, with particular emphasis on cellular populations involved in myocardial repair. The cellular infiltration was analysed by flow cytometry on day 7, at the peak of the reparatory post-MI period. […] Reparatory macrophages in the ischemic myocardium have previously been defined as CD11b^+F4/80^+Ly6C^lo cells. […] In order to investigate the possible mechanisms leading to impaired cardiac function in mice receiving long-term S100A9 blockade, we examined the presence and function of Ly6C^loMerTK^hi macrophages in the myocardium at 7 days post-MI. We found an approximately 50% reduction of the number of reparatory macrophages in hearts of mice receiving ABR-238901 compared to controls (FIG. 40). […] In order to test the functional importance of these findings, we used α-MHC-mCherry mice expressing cardiac-specific red fluorescent Cherry protein under the mouse a-myosin heavy-chain promoter.\nReparatory macrophage numbers were analysed in hearts collected at 7 days post-MI from mice with induced MI treated with ABR-238901 for 3 or 7 days."}, "[2]": {"test_system": "C57BL/6 mice reconstituted with Nur77-EGFP bone marrow, with MI", "assay": "Nur77 expression by flow cytometry in Nur77-EGFP bone marrow chimeras, day 7 post-MI", "type": "in vivo, mouse", "conditions": "7 days treatment", "procedure": "Eight-week-old C57BL/6NRJ female mice were lethally irradiated with a total dose of 910 cGy. One day after irradiation, 1×10^6 total bone marrow cells harvested from donor C57BL/6-Tg(Nr4a1-EGFP/cre)820Khog/J (Nur77-EGFP) mouse and re-suspended in PBS were administered to each recipient mouse via the tail vein. Recipient mice were treated with neomycin in drinking water (2 g/L) for two weeks. Blood samples were collected from all the recipient mice at four weeks after bone marrow transfer, to confirm the success of bone marrow reconstitution by flow cytometry. The mice were used for experiments 6 weeks after bone marrow transfer (FIG. 4S).\nIn order to investigate the underlying molecular mechanisms involved in the […] of myocardial repair by S100A9 blockade, we induced MI in C57Bl/6 mice transplanted with Nur77-EGFP transgenic bone marrow expressing the fluorescent EGFP protein under the Nur77 promoter (FIG. 4S). The expression of Nur77 was measured by flow cytometry in blood monocytes and heart macrophages harvested on day 7 post-MI from mice receiving 7 days ABR-238901 treatment or PBS. […] Nur77 levels were unaffected in the fully-differentiated Ly6C^lo monocytes and Ly6C^loMerTK^hi macrophages (FIG. 4t; FIG. 11b). Further, we studied the influence of S100A9 on Nur77 expression and activity in monocytes and macrophages in-vitro, and the ability of ABR-238901 to inhibit these effects. Stimulation with recombinant extracellular S100A9 for 24 h increased Nur77 expression in bone marrow-derived C57BL/6 monocytes (FIG. 4U). […] Both of these effects were inhibited by ABR-238901 (FIG. 4U-V)."}, "[3]": {"conditions": "treatment for 7 days, 7 days post-MI"}}}
{"smiles": "COc1ncc(S(=O)(=O)Nc2cncc(Cl)c2O)cc1Br", "note": "[ABR-238901, 5-bromo-N-(5-chloro-4-hydroxypyridin-3-yl)-6-methoxypyridine-3-sulfonamide]", "values": [{"measurement": "Intra-myocardial counts of reparatory macrophages vs PBS-treated MI controls", "setting": "[1]; 3 days treatment", "value": "on par with"}, {"measurement": "Intra-myocardial counts of reparatory macrophages vs PBS-treated MI controls", "setting": "[1]; continuous treatment for 7 days", "value": "significantly lower"}, {"measurement": "Percentage of reparatory Ly6CloMerTKhi out of total CD11b+F4/80+ macrophages", "setting": "[1]; [3]", "value": "significantly decreased"}, {"measurement": "Reduction of the number of reparatory Ly6CloMerTKhi macrophages in hearts vs controls", "setting": "[1]; [3]", "value": "approximately 50%"}, {"measurement": "Cell counts in the bone marrow", "setting": "[1]; treatment for 7 days, day 7", "value": "no differences"}, {"measurement": "Monocytes in the spleen vs MI controls", "setting": "[1]; treatment for 7 days, day 7", "value": "accumulation"}, {"measurement": "Numbers of circulating monocytes", "setting": "[1]; treatment for 7 days, day 7", "value": "significantly lower"}, {"measurement": "Numbers of circulating neutrophils", "setting": "[1]; treatment for 7 days, day 7", "value": "significantly lower"}, {"measurement": "Numbers of neutrophils in the spleen", "setting": "[1]; treatment for 7 days, day 7", "value": "not significantly affected"}, {"measurement": "Presence of monocytes in the heart", "setting": "[1]; treatment for 7 days, day 7", "value": "potently reduced"}, {"measurement": "Presence of total CD11b+F4/80+ macrophages in the heart", "setting": "[1]; treatment for 7 days, day 7", "value": "potently reduced"}, {"measurement": "Intracellular Nur77 levels in blood Ly6Chi/int monocytes", "setting": "[2]", "value": "lower"}, {"measurement": "Numbers of reparatory Ly6CloMerTKhi macrophages in the myocardium", "setting": "[2]", "value": "reduced"}, {"measurement": "Nur77 levels in Ly6Clo monocytes", "setting": "[2]", "value": "unaffected"}, {"measurement": "Nur77 levels in Ly6CloMerTKhi macrophages", "setting": "[2]", "value": "unaffected"}]}
